# Experiments:
# [1] = system: BRCA-mutant and HER2-negative advanced breast cancer; settings: cited from earlier work
# [2] = system: human-derived CD45+ cells (hCD45 cells); experiment: FACS assay of hCD45 in peripheral blood 3 weeks after PBMC grafting; assay type: in vivo, Mus Musculus, NCG; settings: FIG. 4
# Experimental: Three weeks after PBMC grafting, peripheral blood of the mice was collected, and the proportion of human-derived CD45^+ cells (hCD45 cells) therein was determined by flow cytometry (FACS). After the end of study, the tumors was removed, weighed and photographed.
# MDA-MB-436 tumor cells = experiment: PBMC humanized MDA-MB-436 subcutaneous tumor grafting model, tumor growth inhibition; assay type: in vivo, Mus Musculus, NCG; settings: for Tumor growth inhibition (%): PG-D24, TGI=(1-T/C)x100% from relative tumor volume, mefuparib HCl 40 mg/kg p.o., Tuoyi 10 mg/kg i.p.; for Tumor volume, Grouping (PG-D0): at grouping, start of treatment, mefuparib HCl 40 mg/kg p.o. qod, Tuoyi 10 mg/kg i.p. q4d; for Tumor volume, Administration (PG-D24): day 24 after grouping, mefuparib HCl 40 mg/kg p.o. qod x 13, Tuoyi 10 mg/kg i.p. q4d x 7
# Experimental: Species: Mus Musculus, NCG (NOD-Prkdc^em26Cd52II2rg^em26Cd22/N ju), female; weight: 18-22 g; quantity: 55; supplier: GemPharmatech.
# MDA-MB-436 tumor cells (YK-CL-075) were purchased from ATCC. The tumor cells were cultured in the Leibovitz's L-15 medium containing inactivated 10% fetal bovine serum, 100 U/mL of penicillin and 100 μg/mL of streptomycin in a 37° C./5% CO2 incubator, and were passaged every 3 to 4 days when the cells were overgrown. The tumor cells in logarithmic phase were used for in vivo tumor grafting.
# PBMCs (human peripheral blood mononuclear cells) were purchased from […] (Donor#: A0075).
# MDA-MB-436 tumor cells were resuspended in a 1:1 (v:v) mixture of PBS and Matrigel at a concentration of 1×10^8 cells/mL, and were grafted subcutaneously at the right flank of mice at 100 μL/mouse. When the tumor grew to about 1000 mm^3, the tumors were aseptically removed and cut into small pieces having dimensions of about 2 mm×2 mm×2 mm, which were grafted subcutaneously at the right flank of experimental animals. After 2 weeks, PBMCs were resuspended in PBS and grafted into mice in an amount of 2×10^6 cells/mouse. The animals were divided into 4 groups of 10 and treated (the day was recorded as PG-D0) when the tumor grew to about 93 mm^3.
# The long and short diameters of the tumor were measured twice every week using a vernier caliper for calculating the tumor volume, and the calculation formula was: volume=0.5×long diameter×[…].
# The T/C value was calculated from the tumor volume, where T is the mean relative tumor volume (RTV) of each treatment group and C is the mean RTV of the control group. RTV is the ratio of tumor volume after the treatment to that before the treatment. Tumor growth inhibition (TGI, %)=(1−T/C)×100%.
# Inter-group statistical analysis was performed on tumor volume using IBM SPSS Statistics 22.0 software and mixed linear model analysis. Inter-group statistical analysis was performed on tumor weight using One-Way ANOVA analysis, with p<0.05 indicating significant differences.
# Water solubility = assay type: physicochemical; settings: times higher than that of olaparib
# [3] = cited from earlier work
# [4] = patients receiving olaparib monotherapy
compound,measurement,setting,value
O=C(c1cc(Cc2n[nH]c(=O)c3ccccc23)ccc1F)N1CCN(C(=O)C2CC2)CC1 [olaparib],grade 3 adverse event: anemia,[1]; associated with olaparib,12%
same,grade 3 adverse event: neutropenia,[1]; associated with olaparib,6%
same,median PFS,[1]; [4],7.0 months
same,response rate,[1]; [4],59.9%
toripalimab [Tuoyi PD-1 monoclonal antibody injection],percentage median of hCD45 cells in peripheral blood compared with the control group,[2],higher than that in the control group
same,Tumor growth inhibition (%),MDA-MB-436 tumor cells,29%
same,"Tumor volume, Grouping (PG-D0)",MDA-MB-436 tumor cells,94 ± 7 mm^3
same,"Tumor volume, Administration (PG-D24)",MDA-MB-436 tumor cells,1256 ± 252 mm^3
durvalumab,grade 3 adverse event: pancreatitis,[1]; associated with durvalumab,6%
"CNCc1ccc(-c2cc3cc(F)cc(C(N)=O)c3o2)cc1.Cl [Mefuparib hydrochloride, mefuparib hydrochloride]",water solubility relative to olaparib,Water solubility,350 times
same,water solubility,[3],> 35 mg/mL
same,percentage median of hCD45 cells in peripheral blood compared with the control group,[2],higher than that in the control group
same,Tumor growth inhibition (%),MDA-MB-436 tumor cells; hydrochloride,54%
same,Tumor growth inhibition (%),"MDA-MB-436 tumor cells; listed as mefuparib hydrochloride, hydrochloride",54%
same,"Tumor volume, Grouping (PG-D0)",MDA-MB-436 tumor cells,93 ± 6 mm^3
same,"Tumor volume, Administration (PG-D24)",MDA-MB-436 tumor cells,761 ± 130 mm^3
